Data on one compound can be found in US20070009533A1 (priority 2005, published 2007).

The series concerns the target T1, MDR1 function in K562/R7 cells (Homo sapiens, UniProt P08183).
T1 construct: endogenous in cells; host or cells: K562/R7 cells
The class given is cell-based. On the procedure: The loaded and washed cells were cultured at 37° C. in 0.5 ml lacking or containing the indicated concentrations of drug for the indicated amount of time. Control cells were placed on ice immediately after loading and, as indicated by the symbol to the far right at MFI=1172, the cells had been loaded with dye.

T1 sequence (P08183 whole entry): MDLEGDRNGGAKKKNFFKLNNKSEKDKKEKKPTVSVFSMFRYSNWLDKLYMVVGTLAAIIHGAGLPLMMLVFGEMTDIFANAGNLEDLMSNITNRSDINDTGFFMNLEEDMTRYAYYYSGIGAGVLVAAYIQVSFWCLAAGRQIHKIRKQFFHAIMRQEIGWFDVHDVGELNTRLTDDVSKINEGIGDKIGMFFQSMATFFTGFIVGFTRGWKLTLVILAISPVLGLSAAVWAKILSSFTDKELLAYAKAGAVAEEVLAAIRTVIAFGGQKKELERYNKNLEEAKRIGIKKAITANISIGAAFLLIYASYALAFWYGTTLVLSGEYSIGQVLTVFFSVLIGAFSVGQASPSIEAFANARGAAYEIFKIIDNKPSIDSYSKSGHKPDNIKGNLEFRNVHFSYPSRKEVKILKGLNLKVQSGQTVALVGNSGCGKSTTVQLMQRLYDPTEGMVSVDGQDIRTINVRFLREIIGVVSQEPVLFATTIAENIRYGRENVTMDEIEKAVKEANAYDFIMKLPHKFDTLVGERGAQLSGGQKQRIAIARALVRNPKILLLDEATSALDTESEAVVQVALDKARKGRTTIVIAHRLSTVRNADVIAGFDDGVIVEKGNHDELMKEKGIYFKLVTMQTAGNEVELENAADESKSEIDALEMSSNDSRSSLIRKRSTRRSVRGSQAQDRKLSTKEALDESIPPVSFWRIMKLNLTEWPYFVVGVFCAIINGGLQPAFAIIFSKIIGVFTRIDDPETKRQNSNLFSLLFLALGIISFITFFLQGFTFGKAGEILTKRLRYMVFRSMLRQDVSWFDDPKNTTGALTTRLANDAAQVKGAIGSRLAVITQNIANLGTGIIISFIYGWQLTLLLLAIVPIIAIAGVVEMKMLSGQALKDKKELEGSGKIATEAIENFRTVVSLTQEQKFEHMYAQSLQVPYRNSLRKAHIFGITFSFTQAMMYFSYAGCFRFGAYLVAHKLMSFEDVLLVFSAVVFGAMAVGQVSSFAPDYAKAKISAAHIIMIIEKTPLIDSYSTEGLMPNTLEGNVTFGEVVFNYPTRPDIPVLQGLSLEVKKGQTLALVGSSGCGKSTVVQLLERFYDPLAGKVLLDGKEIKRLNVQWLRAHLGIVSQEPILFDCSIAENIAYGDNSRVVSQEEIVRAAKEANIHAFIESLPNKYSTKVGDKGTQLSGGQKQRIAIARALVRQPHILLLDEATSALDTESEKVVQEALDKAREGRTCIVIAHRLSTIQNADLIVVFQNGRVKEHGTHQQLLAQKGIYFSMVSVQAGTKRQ

Consider `O[C@@H](COc1cccc2ncccc12)CN1CCN([C@@H]2c3ccccc3[C@@H]3[C@H](c4ccccc42)C3(F)F)CC1` [zosuquidar], for which the “effect on dye release during efflux incubation” value was “inhibited dye release in a concentration-dependent manner”.
